The numbers were not newly measured in PubChem BioAssay AID1259409 (Chemical Carcinogenesis Research Information System (CCRIS), 2018), which cites them from elsewhere.

In this series the test system is rodent chemically induced tumor inhibition, incidence and multiplicity. The series can be described thus: CCRIS tumor inhibitor studies. The settings on record: Route [Inhibitor]: ORAL, Species: RAT, Strain/Sex: F344/MALE, Promoter: NONE USED.

`O`: the “tumour outcome (control, treated, inhibition, significance)” value (Carcinogen: 1,2-DIMETHYLHYDRAZINE, 540-73-8, Dose [Inhibitor]: 0, 250 PPM IN DIET BEGINNING POST CARCINOGEN TREATMENT AND CONTINUING FOR DURATION OF STUDY (STUDY DURATION: 365 D), Target Tissue: Type of Lesion: LARGE INTESTINE: ADENOMA OR ADENOCARCINOMA, Dose [Carcinogen]: 20 MG/KG BW 10 TIMES) is reported as 14/30 (47%), 11/32 (34%), 28%, not significant; the “tumour outcome (control, treated, inhibition, significance)” value (Carcinogen: 1,2-DIMETHYLHYDRAZINE, 540-73-8, Dose [Inhibitor]: 0, 250 PPM IN DIET BEGINNING POST CARCINOGEN TREATMENT AND CONTINUING FOR DURATION OF STUDY (STUDY DURATION: 365 D), Target Tissue: Type of Lesion: SMALL INTESTINE: ADENOCARCINOMA, Dose [Carcinogen]: 20 MG/KG BW 10 TIMES) is 6/30 (20%), 5/32 (16%), 20%, not significant; the “tumour outcome (control, treated, inhibition, significance)” value (Carcinogen: 1,2-DIMETHYLHYDRAZINE, 540-73-8, Dose [Inhibitor]: 0, 500 PPM IN DIET BEGINNING POST CARCINOGEN TREATMENT AND CONTINUING FOR DURATION OF STUDY (STUDY DURATION: 365 D), Target Tissue: Type of Lesion: LARGE INTESTINE: ADENOMA OR ADENOCARCINOMA, Dose [Carcinogen]: 20 MG/KG BW 10 TIMES) is 14/30 (47%), 16/32 (50%), -6%, not significant; the “tumour outcome (control, treated, inhibition, significance)” value (Carcinogen: 1,2-DIMETHYLHYDRAZINE, 540-73-8, Dose [Inhibitor]: 0, 500 PPM IN DIET BEGINNING POST CARCINOGEN TREATMENT AND CONTINUING FOR DURATION OF STUDY (STUDY DURATION: 365 D), Target Tissue: Type of Lesion: SMALL INTESTINE: ADENOMA, Dose [Carcinogen]: 20 MG/KG BW 10 TIMES) was 6/30 (20%), 3/32 (9%), 55%, not significant; the “tumour outcome (control, treated, inhibition, significance)” value (Carcinogen: 1,2-DIMETHYLHYDRAZINE, 540-73-8, Dose [Inhibitor]: 0, 1000 PPM IN DIET BEGINNING POST CARCINOGEN TREATMENT AND CONTINUING FOR DURATION OF STUDY (STUDY DURATION: 365 D), Target Tissue: Type of Lesion: LARGE INTESTINE: ADENOMA OR ADENOCARCINOMA, Dose [Carcinogen]: 20 MG/KG BW 10 TIMES) was 14/30 (47%), 11/32 (34%), 28%, not significant; the “tumour outcome (control, treated, inhibition, significance)” value (Carcinogen: 1,2-DIMETHYLHYDRAZINE, 540-73-8, Dose [Inhibitor]: 0, 1000 PPM IN DIET BEGINNING POST CARCINOGEN TREATMENT AND CONTINUING FOR DURATION OF STUDY (STUDY DURATION: 365 D), Target Tissue: Type of Lesion: SMALL INTESTINE: ADENOCARCINOMA, Dose [Carcinogen]: 20 MG/KG BW 10 TIMES) is 6/30 (20%), 6/32 (19%), 5%, not significant. Further, the “tumour outcome (control, treated, inhibition, significance)” value (Carcinogen: 1,2-DIMETHYLHYDRAZINE, 540-73-8, Dose [Inhibitor]: 0, 2000 PPM IN DIET BEGINNING POST CARCINOGEN TREATMENT AND CONTINUING FOR DURATION OF STUDY (STUDY DURATION: 365 D), Target Tissue: Type of Lesion: LARGE INTESTINE: ADENOCARCINOMA, Dose [Carcinogen]: 20 MG/KG BW 10 TIMES) was 11/30 (37%), 11/31 (35%), 5%, not significant; the “tumour outcome (control, treated, inhibition, significance)” value (Carcinogen: 1,2-DIMETHYLHYDRAZINE, 540-73-8, Dose [Inhibitor]: 0, 2000 PPM IN DIET BEGINNING POST CARCINOGEN TREATMENT AND CONTINUING FOR DURATION OF STUDY (STUDY DURATION: 365 D), Target Tissue: Type of Lesion: SMALL INTESTINE: ADENOCARCINOMA, Dose [Carcinogen]: 20 MG/KG BW 10 TIMES) is 6/30 (20%), 10/31 (32%), -60%, not significant; the “tumour outcome (control, treated, inhibition, significance)” value (Carcinogen: METHYLAZOXYMETHANOL ACETATE, 592-62-1, Dose [Inhibitor]: 0, 500 PPM IN DIET BEGINNING 2 WK POST CARCINOGEN TREATMENT AND CONTINUING FOR DURATION OF STUDY (STUDY DURATION: 255 D), Target Tissue: Type of Lesion: LARGE INTESTINE: ADENOMA OR ADENOCARCINOMA, Dose [Carcinogen]: 25 MG/KG BW 1/WK FOR 3 WK) is reported as 17/32 (53%), 3/30 (10%), 81%, p<0.0002; the “tumour outcome (control, treated, inhibition, significance)” value (Carcinogen: METHYLAZOXYMETHANOL ACETATE, 592-62-1, Dose [Inhibitor]: 0, 500 PPM IN DIET BEGINNING 2 WK POST CARCINOGEN TREATMENT AND CONTINUING FOR DURATION OF STUDY (STUDY DURATION: 255 D), Target Tissue: Type of Lesion: SMALL INTESTINE: ADENOCARCINOMA, Dose [Carcinogen]: 25 MG/KG BW 1/WK FOR 3 WK) was 2/32 (6%), 2/30 (7%), -17%, not significant; the “tumour outcome (control, treated, inhibition, significance)” value (Carcinogen: METHYLAZOXYMETHANOL ACETATE, 592-62-1, Dose [Inhibitor]: 0, 1000 PPM IN DIET BEGINNING 2 WK POST CARCINOGEN TREATMENT AND CONTINUING FOR DURATION OF STUDY (STUDY DURATION: 255 D, Target Tissue: Type of Lesion: LARGE INTESTINE: ADENOMA OR ADENOCARCINOMA, Dose [Carcinogen]: 25 MG/KG BW 1/WK FOR 3 WK) is given as 17/32 (53%), 9/30 (30%), 43%, not significant; the “tumour outcome (control, treated, inhibition, significance)” value (Carcinogen: METHYLAZOXYMETHANOL ACETATE, 592-62-1, Dose [Inhibitor]: 0, 1000 PPM IN DIET BEGINNING 2 WK POST CARCINOGEN TREATMENT AND CONTINUING FOR DURATION OF STUDY (STUDY DURATION: 255 D, Target Tissue: Type of Lesion: SMALL INTESTINE: ADENOCARCINOMA, Dose [Carcinogen]: 25 MG/KG BW 1/WK FOR 3 WK) is recorded as 2/32 (6%), 2/30 (7%), -17%, not significant. Besides, the “tumour outcome (control, treated, inhibition, significance)” value is listed as 17/32 (53%), 3/30 (10%), 81%, p<0.0002 (Carcinogen: METHYLAZOXYMETHANOL ACETATE, 592-62-1, Dose [Inhibitor]: 500 PPM IN DIET BEGINNING 2 WK POST LAST CARCINOGEN DOSE AND CONTINUING FOR 227 D (STUDY DURATION: 255 D), Target Tissue: Type of Lesion: LARGE INTESTINE: ADENOMA OR ADENOCARCINOMA, Dose [Carcinogen]: 25 MG/KG 1/WK FOR 3 WK) and 17/32 (53%), 9/30 (30%), 43%, not calculated (Carcinogen: METHYLAZOXYMETHANOL ACETATE, 592-62-1, Dose [Inhibitor]: 1000 PPM IN DIET BEGINNING 2 WK POST LAST CARCINOGEN DOSE AND CONTINUING FOR 227 D (STUDY DURATION: 255 D), Target Tissue: Type of Lesion: LARGE INTESTINE: ADENOMA OR ADENOCARCINOMA, Dose [Carcinogen]: 25 MG/KG 1/WK FOR 3 WK).
